Experiments:
[1] = system: ZR-75-1 breast carcinoma cells; experiment: Cell proliferation by trypan blue exclusion, GO-101 with oxidative stress (H2O2); type: cell-based, human; settings: 500 nM GO-101 and/or 1 mM H2O2, 3 days, compared to mock conditions
Protocol: FIG. 8. ZR-75-1 human breast carcinoma cells were treated with 500 nM GO-101 and/or 1 mM H2O2 for 3 days and the cell proliferation was measured by trypan blue exclusion method. The percent proliferation is shown to that compared with control.
To assess the effects of GO-101 on sensitivity of human carcinoma cells to oxidative stress, the inventors treated ZR-75-1 breast carcinoma cells with 500 nM GO-101 in the presence and absence of […]. As a control, cells were also separately treated with hFc (data not shown). Following treatment for 3 days, viable cells were then counted using trypan blue exclusion. […] Importantly, the ZR-75-1 cells exposed to 500 nM GO-101, but not hFc, was associated with ˜42% growth inhibition. However, there was a ˜90% growth inhibition when cells were treated with both H2O2 and GO-101 (FIG. 8).

[2] = severe sepsis; decrease from about 31%; cited from earlier work
[3] = system: ZR-75-1 human breast carcinoma xenograft; type: in vivo; settings: doxorubicin 6 mg/kg i.v. Q4D×3
Protocol: ZR-75-1 human breast carcinoma bearing nu/nu mice were dosed with either doxorubicin alone (squares) or in combination with 1 mg/kg GO-101 i.p daily×21 days (circles). Tumors were measured twice a week.
ZR-75-1 Hormone-dependent Breast Carcinoma Xenograft Model: Preliminary 1st TRAP Study in Combination with Doxorubicin (mean tumor volume+SE). ZR-75-1 human breast carcinoma bearing nu/nu mice were dosed with either doxorubicin 6 mg/kg i.v. Q4D×3 (squares) or 1 mg/kg GO-101 i.p daily×21 days+doxorubicin 6 mg/kg i.v. Q4D×3 (circles). Mice were weighed 2-3 times a week and tumor measurements were also performed 2-3 times a week. Points, mean tumor volumes±SE.
GO-101. To avoid freeze/thaw cycles, GO-101 protein (HG-batch GENU001) was prepared as multiple aliquots of frozen solution in PBS into individual treatment doses. The frozen tubes were stored at −80° C. until initiation of dosing. On each day of treatment, the appropriate tubes were allowed to thaw at room temperature. The resulting solution in each tube was clear and colorless with a pH of ˜6.5.
Upon receipt, the clear, red solution was stored at 4° C. protected from light. Dosing solutions were prepared just prior to each treatment by dilution with saline.
About 9-10 weeks old female mice (on the day of treatment) (CRL: NUFoxn1nu) were obtained from Charles River Labs. The mice were fed irradiated Rodent Diet 5053 and water ad libitum. […]

OO [H2O2]
inhibition in cell proliferation / growth inhibition [1]: ~66%

drotrecogin alfa
mortality [2]: about 25%

COc1cccc2c1C(=O)c1c(O)c3c(c(O)c1C2=O)C[C@@](O)(C(=O)CO)C[C@@H]3O[C@H]1C[C@H](N)[C@H](O)[C@H](C)O1 [doxorubicin]
tumor regressions / tumor free survivors [3]: neither tumor regressions nor tumor free survivors
anti-tumor activity based upon tumor growth delay ([3]; p=0.0356): significant
